Literature values as cited in patent US6103262A, “Modified-release metronidazole compositions and methods for making and using same” (priority 1994, dated 2000).

Assays:
[1] = in vivo
[2] = system: Trichomonas vaginalis, Entamoeba histolytica, Helicobacter species, anaerobic bacteria
[3] = system: trichomoniasis or bacterial vaginosis

Cc1ncc([N+](=O)[O-])n1CCO [metronidazole, 1-(2-hydroxyethyl)-2-methyl-5-nitroimidazole]
absorption by the bloodstream [1]: rapidly absorbed | clearance from the bloodstream [1]: rapidly cleared | aqueous solubility (in words): aqueous soluble | killing of microorganisms [2]: effective for killing | side effects ([3]; in vivo): significant and undesirable side effects such as nausea | occurrence and severity of side effects, lower dosages ([3]; in vivo, po): significantly reduce the occurrence and severity of side effects | clinical efficacy ([3]; single large dose (~2 grams) as a bolus): clinically effective
